This note sets out measurements from US20180371044A1, “PEPTIDOMIMETIC MACROCYCLES” (Aileron Therapeutics, Inc., priority 2015, published 2018).

Where a SMILES comes first, the peptide text is derived from it. Bridges are numbered along the chain shown (N, C = ends). [ ]: non-standard residue; d: D form. NMeY = CN[C@@H](Cc1ccc(O)cc1)C(=O)O; R8 = C=CCCCCCC[C@@](C)(N)C(=O)O; Cit = NC(=O)NCCC[C@H](N)C(=O)O; S5 = C=CCCC[C@](C)(N)C(=O)O; Nle = CCCC[C@H](N)C(=O)O; Aib = CC(C)(N)C(=O)O Bounds are passed on as bounds.

For this assay, the target named is T1, human GHRH receptor (hGHRHR) (Homo sapiens, UniProt Q02643).
T1 construct: expressed in transfected cells; host or cells: Human 293 cells
T1 sequence (Q02643 23-423): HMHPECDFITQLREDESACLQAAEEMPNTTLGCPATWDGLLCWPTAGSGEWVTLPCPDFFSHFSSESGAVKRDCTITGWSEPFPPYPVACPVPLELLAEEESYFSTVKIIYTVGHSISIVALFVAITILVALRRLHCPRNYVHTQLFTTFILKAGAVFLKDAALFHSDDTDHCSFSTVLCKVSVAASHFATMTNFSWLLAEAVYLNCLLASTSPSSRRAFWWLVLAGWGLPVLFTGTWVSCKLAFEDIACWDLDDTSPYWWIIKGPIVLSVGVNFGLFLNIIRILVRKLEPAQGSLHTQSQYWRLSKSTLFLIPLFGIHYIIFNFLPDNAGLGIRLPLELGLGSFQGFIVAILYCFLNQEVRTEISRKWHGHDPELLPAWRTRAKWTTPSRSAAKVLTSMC
Kind of assay: GHRHR agonism measured by cAMP (HTRF) in human 293 cells expressing hGHRHR.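 Note: receptor expressed transiently or stably, cells stimulated in serum-free medium, EC50 from a non-linear dose-response fit, maximal response defined by reference GHRH stimulation.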 The assay is classed as cell-based. Particulars: 30 min at RT.

Broadly, the EC50 is the concentration giving half of the maximal effect. `CCCC[C@H](NC(=O)[C@@H](NC(=O)[C@H](CC(=O)O)NC(=O)[C@H](CCC(N)=O)NC(=O)[C@H](CC(C)C)NC(=O)[C@H](C)NC(=O)[C@H](CCCCN)NC(=O)[C@H](CCCNC(N)=O)NC(=O)[C@H](C)NC(=O)[C@H](CO)NC(=O)[C@H](CC(C)C)NC(=O)[C@H](CCC(N)=O)NC(=O)[C@H](C)NC(=O)[C@H](CC(C)C)NC(=O)[C@@H](NC(=O)[C@H](CCCCN)NC(=O)[C@H](CCCNC(=N)N)NC(=O)[C@H](Cc1ccc(O)cc1)NC(=O)[C@H](CO)NC(=O)[C@H](C)NC(=O)[C@@H](NC(=O)[C@H](Cc1ccccc1)NC(=O)[C@@H](NC(=O)[C@H](C)NC(=O)[C@H](CC(=O)O)NC(=O)[C@H](C)NC(=O)[C@H](Cc1ccc(O)cc1)NC)[C@@H](C)CC)[C@@H](C)O)C(C)C)[C@@H](C)CC)C(=O)N[C@@H](CO)C(=O)N[C@@H](CCCNC(=N)N)C(N)=O` [SP-48] (H-[NMeY]ADAIFTASYRKVLAQLSA[Cit]KALQDI[Nle]SR-NH2): the EC50 lay within 1 to 10 nM.

As to `CCCC[C@H](NC(=O)[C@@H](NC(=O)[C@H](CC(=O)O)NC(=O)[C@H](CCC(N)=O)NC(=O)[C@H](CC(C)C)NC(=O)[C@H](C)NC(=O)[C@H](CCCCN)NC(=O)[C@H](CCCNC(=N)N)NC(=O)[C@H](C)NC(=O)[C@H](CO)NC(=O)[C@H](CC(C)C)NC(=O)[C@H](CCC(N)=O)NC(=O)[C@H](C)NC(=O)[C@H](CC(C)C)NC(=O)[C@@H](NC(=O)[C@H](CCCCN)NC(=O)[C@H](CCCNC(=N)N)NC(=O)[C@H](Cc1ccc(O)cc1)NC(=O)[C@H](CO)NC(=O)[C@H](C)NC(=O)[C@@H](NC(=O)[C@H](Cc1ccccc1)NC(=O)[C@@H](NC(=O)[C@H](C)NC(=O)[C@H](CC(=O)O)NC(=O)[C@H](C)NC(=O)[C@H](Cc1ccc(O)cc1)NC)[C@@H](C)CC)[C@@H](C)O)C(C)C)[C@@H](C)CC)C(=O)N[C@@H](CO)C(=O)N[C@@H](CCCNC(N)=O)C(N)=O` [SP-49] (H-[NMeY]ADAIFTASYRKVLAQLSARKALQDI[Nle]S[Cit]-NH2), the EC50 was no more than 1 nM.

`CCCC[C@H](NC(=O)[C@@H](NC(=O)[C@H](CC(=O)O)NC(=O)[C@H](CCC(N)=O)NC(=O)[C@H](CC(C)C)NC(=O)[C@H](C)NC(=O)[C@H](CCCCN)NC(=O)[C@H](CCCNC(=N)N)NC(=O)[C@H](C)NC(=O)[C@H](CO)NC(=O)[C@H](CC(C)C)NC(=O)[C@H](CCC(N)=O)NC(=O)[C@]1(C)CCCC=CCCCCCC[C@@](C)(NC(=O)[C@@H](NC(=O)[C@H](Cc2ccccc2)NC(=O)[C@@H](NC(=O)[C@H](C)NC(=O)[C@H](CC(=O)O)NC(=O)[C@H](C)NC(=O)[C@H](Cc2ccc(O)cc2)NC)[C@@H](C)CC)[C@@H](C)O)C(=O)N[C@@H](CO)C(=O)N[C@@H](Cc2ccc(O)cc2)C(=O)N[C@@H](CCCNC(=N)N)C(=O)N[C@@H](CCCCN)C(=O)N[C@@H](C(C)C)C(=O)N[C@@H](CC(C)C)C(=O)N1)[C@@H](C)CC)C(=O)N[C@@H](CO)C(=O)N[C@@H](CCCNC(=N)N)C(N)=O` [SP-25] (H-[NMeY]ADAIFT[R8]SYRKVL[S5]QLSARKALQDI[Nle]SR-NH2; staple 8-15) returned an EC50 of 1 to 10 nM.

As for `CCCC[C@H](NC(=O)[C@H](C)NC(=O)[C@H](CC(=O)O)NC(=O)[C@H](CCC(N)=O)NC(=O)[C@H](CC(C)C)NC(=O)[C@H](C)NC(=O)[C@H](CCCCN)NC(=O)[C@H](CCCNC(=N)N)NC(=O)[C@]1(C)CCCC=CCCCCCC[C@@](C)(NC(=O)[C@H](CCCNC(=N)N)NC(=O)[C@H](Cc2ccc(O)cc2)NC(=O)[C@H](CO)NC(=O)[C@H](C)NC(=O)[C@@H](NC(=O)[C@H](Cc2ccccc2)NC(=O)[C@@H](NC(=O)[C@H](C)NC(=O)[C@H](CC(=O)O)NC(=O)[C@H](C)NC(=O)[C@H](Cc2ccc(O)cc2)NC)[C@@H](C)CC)[C@@H](C)O)C(=O)N[C@@H](C(C)C)C(=O)N[C@@H](CC(C)C)C(=O)N[C@@H](C)C(=O)N[C@@H](CCC(N)=O)C(=O)N[C@@H](CC(C)C)C(=O)N[C@@H](CO)C(=O)N1)C(=O)N[C@@H](CO)C(=O)N[C@@H](CCCNC(=N)N)C(N)=O` [SP-62] (H-[NMeY]ADAIFTASYR[R8]VLAQLS[S5]RKALQDA[Nle]SR-NH2; staple 12-19), the EC50 lay in the range of 25 to 50 nM.

For the compound `CCCC[C@H](NC(=O)[C@@H](NC(=O)[C@H](CC(=O)O)NC(=O)[C@H](C)NC(=O)[C@H](CC(C)C)NC(=O)[C@H](C)NC(=O)[C@H](CCCCN)NC(=O)[C@H](CCCNC(=N)N)NC(=O)[C@H](C)NC(=O)C(C)(C)NC(=O)[C@H](CC(C)C)NC(=O)[C@H](CCC(N)=O)NC(=O)[C@H](C)NC(=O)[C@H](CC(C)C)NC(=O)[C@@H](NC(=O)[C@H](CCCCN)NC(=O)[C@H](CCCNC(=N)N)NC(=O)[C@H](Cc1ccc(O)cc1)NC(=O)[C@H](CO)NC(=O)[C@H](C)NC(=O)[C@@H](NC(=O)[C@H](Cc1ccccc1)NC(=O)[C@@H](NC(=O)[C@H](C)NC(=O)[C@H](CC(=O)O)NC(=O)[C@H](C)NC(=O)[C@H](Cc1ccc(O)cc1)NC)[C@@H](C)CC)[C@@H](C)O)C(C)C)[C@@H](C)CC)C(=O)N[C@@H](CO)C(=O)N[C@@H](CCCNC(=N)N)C(N)=O` [SP-54] (H-[NMeY]ADAIFTASYRKVLAQL[Aib]ARKALADI[Nle]SR-NH2), the EC50 lay within 1 to 10 nM.

`CCCC[C@H](NC(=O)[C@@H](NC(=O)[C@H](CC(=O)O)NC(=O)C(C)(C)NC(=O)[C@H](CC(C)C)NC(=O)[C@H](C)NC(=O)[C@H](CCCCN)NC(=O)[C@H](CCCNC(=N)N)NC(=O)[C@H](C)NC(=O)[C@H](CO)NC(=O)[C@H](CC(C)C)NC(=O)[C@H](CCC(N)=O)NC(=O)[C@H](C)NC(=O)[C@H](CC(C)C)NC(=O)[C@@H](NC(=O)[C@H](CCCCN)NC(=O)[C@H](CCCNC(=N)N)NC(=O)[C@H](Cc1ccc(O)cc1)NC(=O)[C@H](CO)NC(=O)C(C)(C)NC(=O)[C@@H](NC(=O)[C@H](Cc1ccccc1)NC(=O)[C@@H](NC(=O)[C@H](C)NC(=O)[C@H](CC(=O)O)NC(=O)[C@H](C)NC(=O)[C@H](Cc1ccc(O)cc1)NC)[C@@H](C)CC)[C@@H](C)O)C(C)C)[C@@H](C)CC)C(=O)N[C@@H](CO)C(=O)N[C@@H](CCCNC(=N)N)C(N)=O` [SP-53] (H-[NMeY]ADAIFT[Aib]SYRKVLAQLSARKAL[Aib]DI[Nle]SR-NH2) yielded an EC50 of 1 to 10 nM.

Turning to `CCCC[C@H](NC(=O)[C@@H](NC(=O)[C@H](CC(=O)O)NC(=O)[C@H](CCC(N)=O)NC(=O)[C@H](CC(C)C)NC(=O)[C@H](C)NC(=O)[C@H](CCCCN)NC(=O)[C@H](CCCNC(=N)N)NC(=O)[C@]1(C)CCCC=CCCC[C@](C)(NC(=O)[C@H](CC(C)C)NC(=O)[C@@H](NC(=O)[C@H](CCCCN)NC(=O)[C@H](CCCNC(=N)N)NC(=O)[C@H](Cc2ccc(O)cc2)NC(=O)[C@H](CO)NC(=O)[C@H](C)NC(=O)[C@@H](NC(=O)[C@H](Cc2ccccc2)NC(=O)[C@@H](NC(=O)[C@H](C)NC(=O)[C@H](CC(=O)O)NC(=O)[C@H](C)NC(=O)[C@H](Cc2ccc(O)cc2)NC)[C@@H](C)CC)[C@@H](C)O)C(C)C)C(=O)N[C@@H](CCC(N)=O)C(=O)N[C@@H](CC(C)C)C(=O)N[C@@H](CO)C(=O)N1)[C@@H](C)CC)C(=O)N[C@@H](CO)C(=O)N[C@@H](CCCNC(=N)N)C(N)=O` [SP-14] (H-[NMeY]ADAIFTASYRKVL[S5]QLS[S5]RKALQDI[Nle]SR-NH2; staple 15-19), the EC50 lay in the range of 1 to 10 nM.

The compound `CCCC[C@H](NC(=O)[C@@H](NC(=O)[C@H](CC(=O)O)NC(=O)[C@H](CCC(N)=O)NC(=O)[C@H](CC(C)C)NC(=O)C(C)(C)NC(=O)[C@H](CCCCN)NC(=O)[C@H](CCCNC(=N)N)NC(=O)[C@]1(C)CCCC=CCCCCCC[C@@](C)(NC(=O)[C@H](CCCNC(=N)N)NC(=O)[C@H](Cc2ccc(O)cc2)NC(=O)[C@H](CO)NC(=O)[C@H](C)NC(=O)[C@@H](NC(=O)[C@H](Cc2ccccc2)NC(=O)[C@@H](NC(=O)[C@H](C)NC(=O)[C@H](CC(=O)O)NC(=O)[C@H](C)NC(=O)[C@H](Cc2ccc(O)cc2)NC)[C@@H](C)CC)[C@@H](C)O)C(=O)N[C@@H](C(C)C)C(=O)N[C@@H](CC(C)C)C(=O)N[C@@H](C)C(=O)N[C@@H](CCC(N)=O)C(=O)N[C@@H](CC(C)C)C(=O)N[C@@H](CO)C(=O)N1)[C@@H](C)CC)C(=O)N[C@@H](CO)C(=O)N[C@@H](CCCNC(=N)N)C(N)=O` [SP-65] (H-[NMeY]ADAIFTASYR[R8]VLAQLS[S5]RK[Aib]LQDI[Nle]SR-NH2; staple 12-19) showed a concentration giving a half-maximal response (EC50) of 25 to 50 nM.

The compound `CCCC[C@H](NC(=O)[C@@H](NC(=O)[C@H](CC(=O)O)NC(=O)[C@H](CCC(N)=O)NC(=O)[C@H](CC(C)C)NC(=O)[C@H](C)NC(=O)[C@]1(C)CCCC=CCCC[C@](C)(NC(=O)[C@H](CCC(N)=O)NC(=O)[C@H](C)NC(=O)[C@H](CC(C)C)NC(=O)[C@@H](NC(=O)[C@H](CCCCN)NC(=O)[C@H](CCCNC(=N)N)NC(=O)[C@H](Cc2ccc(O)cc2)NC(=O)[C@H](CO)NC(=O)[C@H](C)NC(=O)[C@@H](NC(=O)[C@H](Cc2ccccc2)NC(=O)[C@@H](NC(=O)[C@H](C)NC(=O)[C@H](CC(=O)O)NC(=O)[C@H](C)NC(=O)[C@H](Cc2ccc(O)cc2)NC)[C@@H](C)CC)[C@@H](C)O)C(C)C)C(=O)N[C@@H](CO)C(=O)N[C@@H](C)C(=O)N[C@@H](CCCNC(=N)N)C(=O)N1)[C@@H](C)CC)C(=O)N[C@@H](CO)C(=O)N[C@@H](CCCNC(=N)N)C(N)=O` [SP-15] (H-[NMeY]ADAIFTASYRKVLAQ[S5]SAR[S5]ALQDI[Nle]SR-NH2; staple 17-21) yielded an EC50 of no more than 1 nM.
